Source: the NIST ThermoML archive (doi:10.1021/je400056z)

Test: xn = mol fraction of the nth substance listed
Details: Liquid, Vibrating tube method

CCCCCCCCCCCCC [tridecane] + O=C=O
Details	mass density [kg/m3]
333.3 K, 17000 kPa, x2 = 0.2526	746.5
333.3 K, 18000 kPa, x2 = 0.0955	743.9
333.3 K, 18000 kPa, x2 = 0.2526	747.3
333.3 K, 19000 kPa, x2 = 0.0955	744.6
333.3 K, 19000 kPa, x2 = 0.2526	748.1
333.3 K, 20000 kPa, x2 = 0.0955	745.3
333.3 K, 20000 kPa, x2 = 0.2526	748.9
333.3 K, 21000 kPa, x2 = 0.0955	746.1
333.3 K, 21000 kPa, x2 = 0.2526	749.7
333.3 K, 22000 kPa, x2 = 0.0955	746.7
333.3 K, 22000 kPa, x2 = 0.2526	750.5
333.3 K, 23000 kPa, x2 = 0.0955	747.4
333.3 K, 23000 kPa, x2 = 0.2526	751.2
333.3 K, 24000 kPa, x2 = 0.0955	748.1
333.3 K, 24000 kPa, x2 = 0.2526	751.9
333.3 K, 25000 kPa, x2 = 0.0955	748.7
333.3 K, 25000 kPa, x2 = 0.2526	752.6
343.02 K, 8000 kPa, x2 = 0.5259	739.5
343.02 K, 9000 kPa, x2 = 0.5259	740.9
343.02 K, 10000 kPa, x2 = 0.5259	742.3
343.02 K, 11000 kPa, x2 = 0.5259	743.7
343.02 K, 12000 kPa, x2 = 0.5259	745.1
343.02 K, 13000 kPa, x2 = 0.5259	746.4
343.02 K, 14000 kPa, x2 = 0.5259	747.6
343.02 K, 15000 kPa, x2 = 0.5259	748.9
343.02 K, 16000 kPa, x2 = 0.5259	750.1
343.02 K, 17000 kPa, x2 = 0.5259	751.3
343.02 K, 18000 kPa, x2 = 0.5259	752.5
343.02 K, 19000 kPa, x2 = 0.5259	753.7
343.02 K, 20000 kPa, x2 = 0.5259	754.8
343.02 K, 21000 kPa, x2 = 0.5259	755.9
343.02 K, 22000 kPa, x2 = 0.5259	757
343.02 K, 23000 kPa, x2 = 0.5259	758.1
343.02 K, 24000 kPa, x2 = 0.5259	759.2
343.02 K, 25000 kPa, x2 = 0.5259	760.2
343.13 K, 15000 kPa, x2 = 0.8978	710.8
343.13 K, 16000 kPa, x2 = 0.8978	723.5
343.13 K, 17000 kPa, x2 = 0.8978	733.2
343.13 K, 18000 kPa, x2 = 0.8978	741.1
343.13 K, 19000 kPa, x2 = 0.8978	748
343.13 K, 20000 kPa, x2 = 0.8978	755
343.13 K, 21000 kPa, x2 = 0.8978	761.4
343.13 K, 22000 kPa, x2 = 0.8978	767.3
343.13 K, 23000 kPa, x2 = 0.8978	772.8
343.13 K, 24000 kPa, x2 = 0.8978	778
343.13 K, 25000 kPa, x2 = 0.8978	782.8
343.14 K, 9000 kPa, x2 = 0.0955	729.8
343.14 K, 9000 kPa, x2 = 0.2526	732.2
343.14 K, 10000 kPa, x2 = 0.0955	730.6
343.14 K, 10000 kPa, x2 = 0.2526	733.2
343.14 K, 11000 kPa, x2 = 0.0955	731.5
343.14 K, 11000 kPa, x2 = 0.2526	734.1
343.14 K, 12000 kPa, x2 = 0.0955	732.4
343.14 K, 12000 kPa, x2 = 0.2526	735
343.14 K, 13000 kPa, x2 = 0.0955	733.2
343.14 K, 13000 kPa, x2 = 0.2526	736
343.14 K, 14000 kPa, x2 = 0.0955	734.1
343.14 K, 14000 kPa, x2 = 0.2526	736.9
343.14 K, 15000 kPa, x2 = 0.0955	734.9
343.14 K, 15000 kPa, x2 = 0.2526	737.8
343.14 K, 16000 kPa, x2 = 0.0955	735.7
343.14 K, 16000 kPa, x2 = 0.2526	738.6
343.14 K, 17000 kPa, x2 = 0.0955	736.5
343.14 K, 17000 kPa, x2 = 0.2526	739.5
343.14 K, 18000 kPa, x2 = 0.0955	737.3
343.14 K, 18000 kPa, x2 = 0.2526	740.4
343.14 K, 19000 kPa, x2 = 0.0955	738.1
343.14 K, 19000 kPa, x2 = 0.2526	741.2
343.14 K, 20000 kPa, x2 = 0.0955	738.9
343.14 K, 20000 kPa, x2 = 0.2526	742
343.14 K, 21000 kPa, x2 = 0.0955	739.6
343.14 K, 21000 kPa, x2 = 0.2526	742.8
343.14 K, 22000 kPa, x2 = 0.0955	740.4
343.14 K, 22000 kPa, x2 = 0.2526	743.6
343.14 K, 23000 kPa, x2 = 0.0955	741.1
343.14 K, 23000 kPa, x2 = 0.2526	744.4
343.14 K, 24000 kPa, x2 = 0.0955	741.8
343.14 K, 24000 kPa, x2 = 0.2526	745.1
343.14 K, 25000 kPa, x2 = 0.0955	742.5
343.14 K, 25000 kPa, x2 = 0.2526	745.9
343.32 K, 14000 kPa, x2 = 0.7549	752.1
343.32 K, 15000 kPa, x2 = 0.7549	755.2
343.32 K, 16000 kPa, x2 = 0.7549	758
343.32 K, 17000 kPa, x2 = 0.7549	760.9
343.32 K, 18000 kPa, x2 = 0.7549	763.8
343.32 K, 19000 kPa, x2 = 0.7549	766.7
343.32 K, 20000 kPa, x2 = 0.7549	769.6
343.32 K, 21000 kPa, x2 = 0.7549	772.4
343.32 K, 22000 kPa, x2 = 0.7549	775.2
343.32 K, 23000 kPa, x2 = 0.7549	777.9
343.32 K, 24000 kPa, x2 = 0.7549	780.7
343.32 K, 25000 kPa, x2 = 0.7549	783.5
353.12 K, 9000 kPa, x2 = 0.0955	722.6
353.12 K, 9000 kPa, x2 = 0.2526	724.8
353.12 K, 10000 kPa, x2 = 0.0955	723.6
353.12 K, 10000 kPa, x2 = 0.2526	725.8
353.12 K, 11000 kPa, x2 = 0.0955	724.5
353.12 K, 11000 kPa, x2 = 0.2526	726.8
353.12 K, 12000 kPa, x2 = 0.0955	725.4
353.12 K, 12000 kPa, x2 = 0.2526	727.8
353.12 K, 13000 kPa, x2 = 0.0955	726.3
353.12 K, 13000 kPa, x2 = 0.2526	728.8
353.12 K, 14000 kPa, x2 = 0.0955	727.2
353.12 K, 14000 kPa, x2 = 0.2526	729.7
353.12 K, 15000 kPa, x2 = 0.0955	728.1
353.12 K, 15000 kPa, x2 = 0.2526	730.7
353.12 K, 16000 kPa, x2 = 0.0955	729
353.12 K, 16000 kPa, x2 = 0.2526	731.6
353.12 K, 17000 kPa, x2 = 0.0955	729.9
353.12 K, 17000 kPa, x2 = 0.2526	732.5
353.12 K, 18000 kPa, x2 = 0.0955	730.7
353.12 K, 18000 kPa, x2 = 0.2526	733.4
353.12 K, 19000 kPa, x2 = 0.0955	731.5
353.12 K, 19000 kPa, x2 = 0.2526	734.3
